Tests used:
[1] = test system: SW 1088 cells, A-172 cells, U-87 MG cells; assay: Cell viability using MTT dye; assay type: cell-based; details: Stiripentol at 250 μ/M; SW 1088, A-172, U-87 MG cells; vs untreated negative control
Experimental: The present disclosure uses Stiripentol as a chemotherapeutic agent to treat brain tumor. Referring to FIG. 1, the cell viability is determined by using MTT dye (3-(4,5-dimethylthiazol-2-yl)-2,5-diphenyltetrazolium bromide and neutral red dye (3-amino-7-dimethylamino-2-methyl-phenazine hydrochloride). Cancer cells from various cell lines (SW 1088 cells, A-172 cells, U-87 MG cells) are incubated with, Stiripentol in the concentration range of 100-250 μ/M. Simultaneously all the cell lines are incubated with etoposide (positive control) in the concentration of 50 μ/M. The cells lines were thereafter treated with 0.05% (w/v) MTT dye for 4 h at 37° C. and DMSO. The cells lines that received no treatment are used as negative control. […] Cells can be incubated with drugs at indicated concentrations and time points. For the MTT assay, at the end of the drug treatments, cells are treated with 0.05% (w/v) MTT dye for 4 h at 37° C. The formazan crystals are dissolved in DMSO and absorbance was measured at 570 nm using the spectrophotometer. Similarly for neutral red assay, Cells are incubated with drugs at indicated concentrations and time points. Briefly, at the end of the drug treatments, cells are incubated with 40 μg/ml neutral red dye for 4 h at 37° C. […] Absorbance was measured at 540 nm using Tecan spectrophotometer.

[2] = test system: SW 1088 cells, A-172 cells, U-87 MG cells; assay: Cell viability using neutral red dye; assay type: cell-based; details: Stiripentol at 250 μ/M; after 24 hours; SW 1088, A-172, U-87 MG cells; vs untreated negative control
Experimental: According to an embodiment the Cell viability can be determined using MTT dye (3-(4,5-dimethylthiazol-2-yl)-2,5-diphenyltetrazolium bromide) and neutral red dye (3-amino-7-dimethylamino-2-methyl-phenazine hydrochloride). Cells can be incubated with drugs at indicated concentrations and time points. For the MTT assay, at the end of the drug treatments, cells are treated with 0.05% (w/v) MTT dye for 4 h at 37° C. The formazan crystals are dissolved in DMSO and absorbance was measured at 570 nm using the spectrophotometer. Similarly for neutral red assay, Cells are incubated with drugs at indicated concentrations and time points. Briefly, at the end of the drug treatments, cells are incubated with 40 μg/ml neutral red dye for 4 h at 37° C. Cells were then destained using a solution (50% ethanol, 49% deionized water, and 1% glacial acetic acid). Absorbance was measured at 540 nm using Tecan spectrophotometer. Referring to FIG. 2, cell viability can be determined by utilizing natural red dye (3-amino-7-dimethylamino-2-methyl-phenazine hydrochloride). Cancer cells from various cell lines namely SW 1088 cells, A-172 cells, U-87 MG cells are incubated with Stiripentol and Doxorubicin (used as positive control) in the concentration range of 50-250 μ/M. thereafter the cells are treated with 40 μg/ml neutral red dye for 4 h at 37° C. and destained. […]

[3] = test system: SW 1088 cells, A-172 cells, U-87 MG cells; assay: Cell proliferation activity using BrdU assay; assay type: cell-based; details: Stiripentol at 250 μ/M; after 72 hours; SW 1088, A-172, U-87 MG cells; vs untreated negative control
Experimental: Referring to FIG. 3, cell proliferative activity of the cancer cells can be determined using BrdU assay. Cancer cells from cell lines namely SW 1088 cells, A-172 cells, U-87 MG cells are incubated with Stiripentol and Doxorubicin (used as positive control) in the concentration range of 50-250 μ/M. The cell lines are treated with 10 micromolar of BrdU for 2 hours and washed with PBS and Formaldehyde. The treated cell lines are incubated with primary antibody and the secondary antibody. The untreated cells lines are used as negative control here.

LDH enzyme from U-87 MG = assay: LDH inhibitory activity; assay type: biochemical; details: Stiripentol at 200 μ/M; after 24 hours; 1.7 mM pyruvate, 250 μM β-NADH; homogenized U-87 MG cells
Experimental: Cancer cells up regulate glycolysis to support rapid growth. LDH is an enzyme part of glycolysis. Referring to FIG. 4 LDH inhibitory activity of Stiripentol can be measured by using LDH enzyme from U-87 MG. The cell culture media is treated with HEPES buffer. Cells are homogenized and treated with the respective drug. Cancer cells thereafter are incubated with Oxamate (used as positive control) at 250 μ/M and Stiripentol at 100 and 200 μ/M respectively. The treated cells are mixed with 1.7 mM of pyruvate and 250 μM of β-NADH.

CC(C)(C)C(O)/C=C/c1ccc2c(c1)OCO2 (stereo not shown) [Stiripentol, 4,4-dimethyl-1-[3,4-(methylendioxy)-phenyl]-1penten-3-ol]
cell viability (MTT dye) [1]: substantial decrease in the cell viability
viability of the cancer cells (natural red dye) [2]: substantial reduction in the viability
cell proliferation activity (BrdU) [3]: substantial reduction in the cell proliferation activity
LDH inhibitory activity (production of LDH enzyme) (LDH enzyme from U-87 MG): substantial decrease in the production of LDH enzyme
